Laboratory results taken from ChEMBL document CHEMBL1201862, “PubChem BioAssay data set” (2004).
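Protocol summary: plate cells (96-well), add compound at 5 concentrations, incubate 48 h, interpolate endpoints linearly. Here, GI50 denotes the concentration required for 50% inhibition of growth.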 Activity calls are given as the source filed them. No stated cut-off is given here; in the data, active = GI50 up to about 1.1 µM and inactive = higher.

What was measured:
Assay in all cases: growth of human tumour cells (NCI), 48 h
NCI-H23 = tested on: NCI-H23
HCT-15 = tested on: HCT-15
EKVX = tested on: EKVX
HCT-116 = tested on: HCT-116
HOP-92 = tested on: HOP-92
A549 = tested on: A549
SK-MEL-28 = tested on: SK-MEL-28
HL-60 = tested on: HL-60
SF-268 = tested on: SF-268
MOLT-4 = tested on: MOLT-4
ACHN = tested on: ACHN
UO-31 = tested on: UO-31
BT-549 = tested on: BT-549
IGROV-1 = tested on: IGROV-1
NCI-H460 = tested on: NCI-H460
UACC-62 = tested on: UACC-62
SK-OV-3 = tested on: SK-OV-3
TK-10 = tested on: TK-10
HT-29 = tested on: HT-29
OVCAR-8 = tested on: OVCAR-8

Compound	GI50 (NCI-H23)	GI50 (HCT-15) [µM]	GI50 (EKVX)	GI50 (HCT-116)	GI50 (HOP-92)	GI50 (A549)	GI50 (SK-MEL-28)	GI50 (HL-60)	GI50 (SF-268)	GI50 (MOLT-4)	GI50 (ACHN)	GI50 (UO-31)	GI50 (BT-549)	GI50 (IGROV-1)	GI50 (NCI-H460)	GI50 (UACC-62)	GI50 (SK-OV-3)	GI50 (TK-10)	GI50 (HT-29)	GI50 (OVCAR-8)
O=C(O)C1CSC2(CCCN(Cc3ccccc3)C2)N1 (stereo not given)	> 100 µM (inactive)	> 100	> 100 µM (inactive)	> 100 µM (inactive)	> 100 µM (inactive)	> 100 µM (inactive)	> 100 µM (inactive)	> 100 µM (inactive)	> 100 µM (inactive)	> 20.7 µM (inactive)	> 100 µM (inactive)	> 100 µM (inactive)	> 100 µM (inactive)	> 100 µM (inactive)	> 100 µM (inactive)	> 100 µM (inactive)	> 100 µM (inactive)	> 100 µM (inactive)	> 100 µM (inactive)	> 100 µM (inactive)
Cc1cc(C)c2c(=O)n(CC(O)CN3CCN(c4ncccn4)CC3)sc2n1 (stereo not given)	17.7 µM (inactive)	18.8	16 µM (inactive)	15.6 µM (inactive)	29 µM (inactive)	17.5 µM (inactive)	17 µM (inactive)	16.6 µM (inactive)	18.6 µM (inactive)	4 µM (inactive)	18.4 µM (inactive)	16.4 µM (inactive)	18.4 µM (inactive)	29.4 µM (inactive)	17.5 µM (inactive)	17.8 µM (inactive)	18.7 µM (inactive)	18.2 µM (inactive)	16.1 µM (inactive)	19.2 µM (inactive)
COc1ccc2c(c1)C(=O)C(=O)c1cc(O)c(OC)c(OC)c1-2	0.889 µM (active)	0.91	0.979 µM (active)	0.813 µM (active)	0.875 µM (active)	2.73 µM (inactive)	0.845 µM (active)	0.104 µM (active)	1 µM (active)	0.114 µM (active)	0.893 µM (active)	0.925 µM (active)	0.718 µM (active)	0.791 µM (active)	3.02 µM (inactive)	0.849 µM (active)	1.5 µM (inactive)	1.01 µM (active)	1.32 µM (inactive)	0.875 µM (active)
CC(=O)/C(=C/c1ccccc1F)C(=O)c1ccccc1	32 µM (inactive)	27.7	67.1 µM (inactive)	27.8 µM (inactive)	91.8 µM (inactive)	57 µM (inactive)	53.2 µM (inactive)	21.4 µM (inactive)	33.2 µM (inactive)	2.19 µM (inactive)	35.2 µM (inactive)	34.1 µM (inactive)	48.2 µM (inactive)	44.2 µM (inactive)	25.1 µM (inactive)	37.2 µM (inactive)	34.9 µM (inactive)	24.4 µM (inactive)	33.1 µM (inactive)	21.6 µM (inactive)
CC1OC(O[C@H]2C3C=CO[C@@H](OC4OC(CO)C(O)C(O)C4O)C3[C@@]3(COC(=O)/C=C/c4ccc(O)cc4)O[C@@H]23)C(O)C(O)C1O (stereo not given in full)	> 100 µM (inactive)	> 100	> 100 µM (inactive)	> 100 µM (inactive)	> 100 µM (inactive)	> 100 µM (inactive)	> 100 µM (inactive)	> 100 µM (inactive)	> 100 µM (inactive)	> 100 µM (inactive)	> 100 µM (inactive)	> 100 µM (inactive)	> 100 µM (inactive)	> 100 µM (inactive)	> 100 µM (inactive)	> 100 µM (inactive)	> 100 µM (inactive)	> 100 µM (inactive)	> 100 µM (inactive)	> 100 µM (inactive)
COc1ccc2c(=O)c(-c3cc4c(cc3OC)OCO4)coc2c1	> 100 µM (inactive)	> 100	> 100 µM (inactive)	> 100 µM (inactive)	32.9 µM (inactive)	> 100 µM (inactive)	> 100 µM (inactive)	> 100 µM (inactive)	72.8 µM (inactive)	> 100 µM (inactive)	43.7 µM (inactive)	> 100 µM (inactive)	> 100 µM (inactive)	58.9 µM (inactive)	> 100 µM (inactive)	> 100 µM (inactive)	> 100 µM (inactive)	56.1 µM (inactive)	> 100 µM (inactive)	55.2 µM (inactive)
